{
  "source": "patent US12521387B2",
  "about": "“Prophylactic or therapeutic drug for neurodegenerative diseases” (Medilabo RFP, Inc., priority 2019, dated 2026)",
  "key": {"APPOSK mice [1]": {"test_system": "APPOSK mice", "assay": "Morris water maze behavioral test (spatial reference memory, cognitive function) in Alzheimer's disease model mice", "assay_type": "in vivo, mouse", "conditions": "for Cognitive function (Morris water maze): transnasal", "source_text": "Eleven-month-old male APPOSK mice (Tomiyama et al. J Neurosci. 2010; 30: 4845-56) were provided. The body weight of each of the APPOSK mice was about 30 g. Sixty APPOSK mice were divided into five groups A to E each including 12 mice. Separately, 12 wild-type mice (non-Tg littermate) of the same month old were provided. The APPOSK mice were amyloid precursor protein (APP) transgenic mice (Alzheimer's disease models), and had accumulation of amyloid-β (Aβ) protein.\nFor oral administration, an oral sound for rodents was used; for transnasal administration, pipetman (white tip) was used; and for subcutaneous administration, an injection syringe was used. All of these administrations were carried out under non-anesthesia.\nThe behavioral test was carrying out by determining the spatial reference memory of each of the mice using a Morris water maze in accordance with the method described in Umeda et al. Brain 2016; 139: 1568-86.\nThirteen-month-age (13 mo) individuals of the APPOSK mice shown in Test Example 1 were used."}, "APPOSK mice [2]": {"test_system": "APPOSK mice", "assay": "Liver enzymes AST (GOT) and ALT (GPT) in serum (hepatic dysfunction)", "assay_type": "in vivo, mouse", "conditions": "for AST level (in words): transnasal", "source_text": "Blood was collected from each of the mice after the completion of the behavioral test, and then serum was separated from the blood to prepare a serum sample."}, "Aβ oligomers": {"target": "T1, Aβ oligomers (Homo sapiens, UniProt P05067, DEL693-693)", "T1 construct": "had accumulation of amyloid-β (Aβ) protein; from tissue; host or cells: brain (hippocampus) of APPOSK transgenic mice", "assay_type": "in vivo, mouse", "conditions": "APPOSK mice, transnasal, every day for 1 month", "text": "(§1) Each of Aβ oligomers (Aβ oligomers have been believed to cause the phosphorylation of tau and the decrease in synaptophysin), synaptophysin (a marker protein for a synapse) and phosphorylated tau was stained by an immunohistochemical staining method in accordance with the procedure described in Umeda et al. Brain 2016; 139: 1568-86. For the staining of the Aβ oligomers, 11A1 antibody (Immuno-Biological Laboratories Co, Ltd.) was used; for the staining of synaptophysin, SVP-38 antibody (Sigma) was used; and for the staining of phosphorylated tau, mouse monoclonal PHF-1 antibody (an anti-p-Ser396/404-tau antibody, provided by Peter Davies, Ph. d., Albert Einstein College of Medicine). After the staining, each of the Aβ oligomers, synaptophysin and phosphorylated tau was quantified using NIH image-J."}, "[3]": {"test_system": "Tauopathy model mice (Tau784)", "assay": "Morris water maze behavioral test (cognitive function) in tauopathy model mice", "assay_type": "in vivo, mouse", "conditions": "Tau784 mice 14-15 mo, transnasal, every day for 1 month", "source_text": "Tauopathy model mice (Umeda T et al., Am. J. Pathol. 183, 211-225, 2013) were provided, 14- to 15-month-old individuals of the model mice were used as subjects of administration."}, "Aβ42": {"target": "T2, Aβ42 (Homo sapiens, UniProt P05067)", "T2 construct": "suppress the toxicity of Aβ42", "assay": "Suppression of the toxicity of Aβ42", "conditions": "confirmed by the present inventors"}, "[4]": {"test_system": "causative protein for a neurodegenerative disease", "assay": "Suppression of the aggregation of a causative protein for a neurodegenerative disease", "conditions": "confirmed by the present inventors"}, "[5]": {"test_system": "patients having mild to moderate Alzheimer's disease", "conditions": "119 patients, 52 weeks; 500 mg, increased by 500 mg every 13 weeks to 1000 mg twice per day; cited from earlier work"}, "[6]": {"test_system": "mitogen (division promoting factor)-activated protein (MAP) kinase", "conditions": "differentiated or undifferentiated human neuroblast SH-SY5Y; cited from earlier work"}, "synaptophysin": {"test_system": "synaptophysin", "assay": "Immunohistochemical staining and quantification of synaptophysin in hippocampus (SVP-38 antibody)", "assay_type": "in vivo, mouse", "conditions": "APPOSK mice; rifampicin 0.05 mg/day transnasal, every day for 1 month; listed as Reference Working Example 3", "text": "as §1"}, "phosphorylated tau": {"test_system": "phosphorylated tau", "assay": "Immunohistochemical staining and quantification of phosphorylated tau in hippocampus (PHF-1 antibody)", "assay_type": "in vivo, mouse", "conditions": "APPOSK mice; rifampicin 0.05 mg/day transnasal, every day for 1 month; listed as Reference Working Example 3", "text": "as §1"}, "[7]": {"test_system": "α-synuclein transgenic (αSyn-Tg) mice each having an A53T mutation", "assay": "Morris water maze behavioral test (cognitive function) in synucleinopathy model mice", "assay_type": "in vivo, mouse", "conditions": "αSyn-Tg 6 mo mice (DLB model); rifampicin 0.1 mg/day transnasal, every day for 1 month; listed as Reference Working Example 5", "method": "As synucleinopathy models, α-synuclein transgenic (αSyn-Tg) mice each having an A53T mutation were purchased from Jackson Laboratories. […] Therefore, in this Test Example, αSyn-Tg 6 mo mice and αSyn-Tg 9 mo mice were used as the subjects of administration.\nThe motor function and the cognitive function of each of the model mice were confirmed by a motor function test and a cognitive function test as mentioned below. The motor function test was carried out using a rotarod. Each of the mice was placed on a rotor which could rotate at a speed of 5 rpm (5 rotations per minute), was then subjected to such a training that the mouse was allowed to walk on the rotor for 3 minutes, and was then placed on a rotor of which the speed of rotation could increase from 4 rpm to 40 rpm over 4 minutes, and the time (seconds) until the mouse fell off the rotor was measured (when the mouse was turned once while holding on to the rotor, it was deemed that the mouse fell off). The measurement was carried out twice per day, and an average value of the measurement values was determined. The cognitive function test was carried out in accordance with the method described in Umeda et al. Brain 2016; 139: 1568-86 by measuring the spatial reference memory of the mice using a Morris water maze (the cognitive function test in the below-mentioned examples was carried out in the same manner as in this Test Example). […]"}, "Aβ": {"target": "Aβ (Homo sapiens, UniProt P05067)", "assay": "In vitro formation of oligomers of Aβ"}, "tau": {"test_system": "tau", "assay": "In vitro formation of oligomers of tau"}, "α-synuclein": {"target": "α-synuclein (Homo sapiens, UniProt P37840)", "assay": "In vitro formation of oligomers of α-synuclein"}, "[8]": {"test_system": "AD model mouse in which Aβ is accumulated", "assay": "Oral administration to AD model mouse", "assay_type": "in vivo", "conditions": "orally administered"}, "[9]": {"test_system": "FTD model mouse in which tau is accumulated", "assay": "Oral administration to FTD model mouse", "assay_type": "in vivo", "conditions": "orally administered"}, "[10]": {"conditions": "APPOSK mice, serum, rifampicin 0.05 mg/day transnasal, every day for 1 month, Mean ± SEM, n = 11"}},
  "note": "Entries after “also recorded” stand apart in the source; their conditions may differ. Like-named read-outs stand apart in the source and are kept apart here.",
  "data": [
    {"compound": "Oc1ccc(/C=C/c2cc(O)cc(O)c2)cc1", "note": "[resveratrol, 3,5,4′-trihydroxy-trans-stilbene]", "values": [
      {"measurement": "Cognitive function (Morris water maze)", "setting": "APPOSK mice [1]; APPOSK mice 13 mo, resveratrol 0.02 mg/day, every day for 1 month (Test Example 6)", "value": "the cognitive function-improving effect was observed, although the effect was exerted slowly"},
      {"measurement": "Cognitive function (Morris water maze)", "setting": "APPOSK mice [1]; APPOSK mice 13 mo, resveratrol 0.1 mg/day, every day for 1 month (Test Example 6)", "value": "the improvement of cognitive function was observed to a level close to that observed in the wild-type mice"},
      {"measurement": "Cognitive function (Morris water maze)", "setting": "APPOSK mice [1]; APPOSK mice, resveratrol 0.02 mg/day alone, every day for 1 month (Test Example 3), listed as Reference Example 10", "value": "the cognitive function improving tendency was observed; also recorded: a slow cognitive function-improving effect on a neurodegenerative disease was observed"},
      {"measurement": "AST level", "setting": "APPOSK mice [2]; APPOSK mice (not shown), resveratrol 0.1 mg administered alone", "value": "about 86 IU/L"},
      {"measurement": "AST level / liver protection activity (in words)", "setting": "APPOSK mice [2]; APPOSK mice (not shown), resveratrol 0.1 mg alone, compared with Reference Example 9 (CMC)", "value": "the AST level was decreased and a positive liver protection activity was confirmed"},
      {"measurement": "AST level (in words)", "setting": "APPOSK mice [2]; APPOSK mice, resveratrol 0.02 mg/day alone, every day for 1 month, compared with Reference Example 9 (CMC)", "value": "AST was not reduced"},
      {"measurement": "Removal of accumulated Aβ oligomers (immunostaining)", "setting": "Aβ oligomers; resveratrol 0.02 mg/day alone, listed as Reference Example 10", "value": "the effect to remove the accumulated Aβ oligomers was observed, but the level of the effect was smaller than that in Example 1; also recorded: the accumulated Aβ oligomers removing effect was confirmed; also recorded: the significant removal of the accumulated oligomers was observed"},
      {"measurement": "Cognitive function (Morris water maze)", "setting": "[3]; resveratrol 0.02 mg/day alone, listed as Reference Example 15", "value": "the cognitive function improving effect was developed slowly; also recorded: a slow cognitive function-improving effect on a neurodegenerative disease was observed"},
      {"measurement": "Effect to suppress the toxicity of Aβ42", "setting": "Aβ42", "value": "significantly weaker compared with rifampicin"},
      {"measurement": "Effect to suppress the aggregation of a causative protein for a neurodegenerative disease", "setting": "[4]", "value": "weak"},
      {"measurement": "Effectiveness on Alzheimer's disease compared with placebo", "setting": "[5]", "value": "the effectiveness of the administration of resveratrol could not been confirmed"},
      {"measurement": "Phosphorylation of MAP kinase", "setting": "[6]", "value": "induces the phosphorylation of mitogen (division promoting factor)-activated protein (MAP) kinase"}
    ]},
    {"compound": "CO[C@H]1/C=C/O[C@@]2(C)Oc3c(C)c(O)c4c(O)c(c(/C=N/N5CCN(C)CC5)c(O)c4c3C2=O)NC(=O)/C(C)=C\\C=C\\[C@H](C)[C@H](O)[C@@H](C)[C@@H](O)[C@@H](C)[C@H](OC(C)=O)[C@@H]1C", "note": "[rifampicin, 3-(4-methylpiperazinyliminomethyl)rifamycin SV]", "values": [
      {"measurement": "Cognitive function (Morris water maze)", "setting": "APPOSK mice [1]; APPOSK mice, rifampicin 0.02 mg/day alone, every day for 1 month", "value": "the cognitive function improving tendency was observed"},
      {"measurement": "Improvement of memory impairment (Morris water maze)", "setting": "APPOSK mice [1]; APPOSK mice, rifampicin 0.05 mg/day transnasal, every day for 1 month, listed as Reference Working Example 3", "value": "the improvement effect was at the same level as that in the wild-type mice; also recorded: the improvement effect was higher than that in the case of oral administration"},
      {"measurement": "ALT", "setting": "APPOSK mice [2]; [10]", "value": "40 ± 10", "unit": "IU/L"},
      {"measurement": "AST", "setting": "APPOSK mice [2]; [10]", "value": "165 ± 32", "unit": "IU/L"},
      {"measurement": "AST level (in words)", "setting": "APPOSK mice [2]; APPOSK mice, rifampicin 0.02 mg/day alone, every day for 1 month, listed as Comparative Example 1", "value": "the increase in AST level, which indicated the occurrence of adverse side effects, was observed; also recorded: significantly reduced compared with the case of oral administration"},
      {"measurement": "Removal of accumulated Aβ oligomers (immunostaining)", "setting": "Aβ oligomers; rifampicin 0.02 mg/day alone", "value": "the effect to remove the accumulated Aβ oligomers was observed, but the level of the effect was smaller than that in Example 1"},
      {"measurement": "Synaptophysin recovery in the hippocampus (immunostaining)", "setting": "synaptophysin", "value": "the decreased synaptophysin was recovered; also recorded: the same level as that in the wild-type mice; also recorded: the effect was higher than that in the oral administration"},
      {"measurement": "Phosphorylated tau reduction in the hippocampus (immunostaining)", "setting": "phosphorylated tau", "value": "the amount of phosphorylated tau accumulated in the brain was decreased and high"},
      {"measurement": "Cognitive function / memory impairment (Morris water maze)", "setting": "[7]", "value": "the improvement of memory impairment was observed from day 1 after the administration; also recorded: the cognitive function was recovered to the same level as that in normal Non-Tg mice"},
      {"measurement": "Cognitive function (Morris water maze)", "setting": "[3]; rifampicin 0.02 mg/day alone", "value": "the cognitive function improving effect was developed slowly"},
      {"measurement": "Inhibition of in vitro formation of oligomers of Aβ", "setting": "Aβ", "value": "can inhibit the in vitro formation of oligomers"},
      {"measurement": "Inhibition of in vitro formation of oligomers of tau", "setting": "tau", "value": "can inhibit the in vitro formation of oligomers"},
      {"measurement": "Inhibition of in vitro formation of oligomers of α-synuclein", "setting": "α-synuclein", "value": "can inhibit the in vitro formation of oligomers"},
      {"measurement": "Cognitive function", "setting": "[8]", "value": "can recover the cognitive function of the mouse"},
      {"measurement": "Cognitive function", "setting": "[9]", "value": "can recover the cognitive function of the mouse"},
      {"measurement": "Effect to suppress the toxicity of Aβ42", "setting": "Aβ42", "value": "can completely suppress the toxicity of Aβ42"}
    ]}
  ]
}
